Our source for the EC50 values is US20220251084A1, “PROGRANULIN MODULATORS AND METHODS OF USING THE SAME” (ARKUDA THERAPEUTICS, priority 2019, published 2022).

One may read the EC50 as the concentration that produces a half-maximal response. Read a low EC50 as greater potency.

One assay relates to progranulin (PGRN) secretion, BV-2 cells. In words: PGRN assay: progranulin induction cellular assay (ELISA of secreted mouse PGRN). The format is cell-based. Conditions: Mus musculus, BV-2. As for the experimental part: Cellular Assays: To measure the efficacy of compounds, a progranulin induction cellular assay in mouse primary microglia (pMG), primary cortical neurons, and BV-2 cell lines is used. BV-2 cells are split the day before plating into a 96 well plate format at approximately 80%. Cells should be plated the day before and allowed for 1 hour attachment period and for 16 hour incubation. […] Standard ELISA kits to measure PGRN are available from vendors such as Adipogen, R&D, and Biovendor.
`COC(=O)c1ccc2c(c1)CCN(C(=O)O[C@@H]1CN3CCC1CC3)[C@H]2c1ccc(F)cc1` [Compound 2086]: the EC50 is above 10000 nM.

For `CNC(=O)c1ccc2c(c1)[C@@H](c1ccc(F)cc1)N(C(=O)O[C@@H]1CN3CCC1CC3)CC2` [Compound 2066], the EC50 is above 10000 nM.

The assay is the same for the next values; noted with them: Mus musculus, BV-2, PGRN assay, Table C; secreted mouse PGRN in cell culture medium, ELISA.
The compound `CN1CCC2(CC1)CC(OC(=O)N1CCc3ccccc3[C@@H]1c1ccc(F)cc1)C2` [Compound 2018] registered an EC50 of 1890 nM.

On to `CN1C2COCC1CC(OC(=O)N1CCc3ccccc3[C@@H]1c1ccc(F)cc1)C2` (stereo partly drawn) [Compound 2067, (1 S)-9′-methyl-3′-oxa-9′-azabicyclo[3.3.1]nonan-7′-yl-1-(4-fluorophenyl)-3,4-dihydroisoquinoline-2(1H)-carboxylate], for which the concentration giving a half-maximal response (EC50) was determined as 240 nM.

With `CN(CC1CCNCC1)C(=O)N1CCc2ccccc2[C@H]1c1ccc(F)cc1` [Compound 2183, 1-(4-fluorophenyl)-N-methyl-N-(piperidin-4-ylmethyl)-3,4-dihydroisoquinoline-2(1H)-carboxamide], the midpoint of the response, the EC50, lay at 9600 nM.

Compound `CN1C[C@@H]2CC[C@H](OC(=O)N3CCc4ccccc4[C@@H]3c3ccc(F)cc3)[C@@H]2C1` (relative stereo) [Compound 2062, (1 S)-(rel-(3′aR,6′aS)-2′-methyloctahydrocyclopenta[c]pyrrol-4-yl)-1-(4-fluorophenyl)-3,4-dihydroisoquinoline-2(1H)-carboxylate] displayed a 50% effective concentration (EC50) of 1120 nM.

`O=C1C[C@H](COC(=O)N2CCc3ccccc3[C@@H]2c2ccc(F)cc2)CCN1` (single isomer, unassigned) [Compound 2185, (1 S)-(2-oxopiperidin-4-yl)methyl 1-(4-fluorophenyl)-3,4-dihydroisoquinoline-2(1H)-carboxylate] came in with a half-maximal effective concentration (EC50) above 10000 nM.

Staying with this assay, now noted: Mus musculus, BV-2, PGRN assay, Table D; secreted mouse PGRN in cell culture medium, ELISA.
Compound `CN1C[C@@H](NC(=O)N2CCc3ccccc3[C@@H]2c2ccc(F)cc2)C2(CC2)C1` (single isomer, unassigned) [Compound 2317] had a 50% effective concentration (EC50) of 9740 nM.

As for `O=C(O[C@@H]1CNC[C@H]1F)N1CCc2ccccc2[C@@H]1c1ccc(F)cc1` [Compound 2349, (3R,4R)-4-fluoropyrrolidin-3-yl (S)-1-(4-fluorophenyl)-3,4-dihydroisoquinoline-2(1H)-carboxylate], the EC50 is 346 nM.

Compound `CN1CCC(C(=O)C(=O)N2CCc3ccccc3[C@@H]2c2ccc(F)cc2)C1` (stereo partly drawn) [Compound 2274, 1-((S)-1-(4-fluorophenyl)-3,4-dihydroisoquinolin-2(1H)-yl)-2-(1-methylpyrrolidin-3-yl)ethane-1,2-dione] registered an EC50 of 1400 nM.

Consider `CC1(C)CNC[C@H]1OC(=O)N1CCc2ccccc2[C@@H]1c1ccc(F)cc1` [Compound 2292], for which a half-maximal effect (EC50) was put at 431 nM.

`N[C@@H]1CCN(C(=O)N2CCc3ccccc3[C@H]2c2ccc(F)cc2)C1` [Compound 2286] yielded a concentration giving a half-maximal response (EC50) of 2840 nM.

Consider `NC[C@H]1CN(C(=O)N2CCc3ccccc3[C@@H]2c2ccc(F)cc2)CCO1` [Compound 2303], for which a half-maximal response (EC50) required 329 nM.

In turn, `CN1C[C@H](NC(=O)N2CCc3ccccc3[C@@H]2c2ccc(F)cc2)C(F)(F)C1` [Compound 2294, (S)—N—((S)-4,4-difluoro-1-methylpyrrolidin-3-yl)-1-(4-fluorophenyl)-3,4-dihydroisoquinoline-2(1H)-carboxamide] returned an EC50 above 10000 nM.

With `CN1[C@H]2CC[C@@H]1[C@@H](NC(=O)N1CCc3ccccc3[C@@H]1c1ccc(F)cc1)C2` [Compound 2226], the EC50 was determined as 2680 nM.

In the case of `O=C(N[C@H]1CNCC1(F)F)N1CCc2ccccc2[C@@H]1c1ccc(F)cc1` (stereo in doubt) [Compound 2243, (1 S)—N-(4,4-difluoropyrrolidin-3-yl)-1-(4-fluorophenyl)-3,4-dihydroisoquinoline-2(1H)-carboxamide], a half-maximal effect (EC50) was put at 360 nM.

As for `O=C(OC[C@]1(F)CCNC1)N1CCc2ccccc2[C@@H]1c1ccc(F)cc1` [Compound 2256], the midpoint of the response, the EC50, lay at 170 nM.

Compound `CN1C[C@@H](NC(=O)N2CCc3ccccc3[C@H]2c2ccc(F)cc2)C2(CC2)C1` (single isomer, unassigned) [Compound 2318] yielded an EC50 of 3350 nM.
